Assay results taken from patent publication US11279726B2, “Norbornene-based amphipathic compound and utilization thereof” (Industry-University Cooperation Foundation Hanyang …, priority 2017, dated 2022).

Tests used:
β2AR / β2AR-Gs complex [1] = molecular target: T1, β2AR / β2AR-Gs complex (Homo sapiens, UniProt P07550); assay: Size exclusion chromatography of β2AR and β2AR-Gs complex after amphiphile exchange; conditions: after amphiphile exchange, 20x CMC
T1 construct: Flag; made in house
Experimental: (§1) β2AR purified with 0.1 wt % DDM was loaded onto an M1 Flag column in the presence of 2 mM […], and the column was washed with a DDM or X-NBM-C11 buffer (20 mM HEPES pH 7.5, 100 mM NaCl, 0.2% respective amphiphile). The receptor was eluted in 20× CMC DDM or X-NBM-C11 containing 5 mM EDTA and 0.2 mg/ml free Flag peptide. The eluate was further applied to a superdex-200 10/300 GL column (GE healthcare) at 0.5 ml/min, and UV absorbance at 280 nm was recorded. The running buffer contained 20 mM HEPES pH 7.5, 100 mM NaCl, 20× CMC individual detergents (DDM and X-NBM-C11).
(§2) In addition, GPCR-Gs complex purified in DDM was replaced with X-NBM-C11 through amphiphilic molecule exchange, and sample aliquots were obtained at regular intervals in 21-day incubation at 4° C. to measure complex stability.

β2AR / β2AR-Gs complex [2] = assay: as above; design: species or system human; conditions: 21-day incubation at 4° C.
Experimental: as §1, §2

β2AR-Gs complex = β2AR-Gs complex (Homo sapiens, UniProt P07550); assay: Negative stain EM analysis of β2AR-Gs complex
Experimental: A β2AR-Gs protein complex was prepared for electron microscopy using the conventional negative staining protocol, and imaged at room temperature with a Tecnai T12 electron microscope operated at 120 kV using low-dose procedures. Images were recorded at a magnification of 71,138× and a defocus value of approximately 1.4μ using a Gatan US4000 CCD camera. All images were binned (2×2 pixels) to obtain a pixel size of 4.16 A at the specimen level. Particles were manually excised using e2boxer (part of the EMAN2 software suite). 2D reference-free alignment and classification of particle projections were performed using ISAC. 14,556 projections of β2AR-Gs were subjected to ISAC, producing 199 classes consistent over two-way matching and accounting for 10,100 particle projections.

In the case of CCCCCCCCCCCOCC1C2CC([C@H]1COCCCCCCCCCCC)[C@H](O[C@@H]1OC(CO)[C@@H](O[C@H]3OC(CO)[C@@H](O)C(O)C3O)C(O)C1O)C2O[C@@H]1OC(CO)[C@@H](O[C@H]2OC(CO)[C@@H](O)C(O)C2O)C(O)C1O (stereo partly drawn) [X-NBM-C11], the “Size/homogeneity of β2AR protein-detergent complexes (SEC)” value (β2AR / β2AR-Gs complex [1]) is reported as “homogeneous PDCs with the same size as that formed by DDM”, the “β2AR-Gs complex stability by SEC profiles” value (β2AR / β2AR-Gs complex [2]) is reported as “perfectly maintained complex stability” and the “Particle dispersity of β2AR-Gs complex in negative stain EM” value (β2AR-Gs complex) is reported as “highly mono-dispersed particles”.
